The source of these data is PMC4199632, “Exploring the Anti-Cancer Activity of Novel Thiosemicarbazones Generated through the Combination of Retro-Fragments: Dissection of Critical Structure-Activity Relationships” (PLoS ONE, 2014).

As usually defined, the IC50 is the midpoint of a concentration-inhibition curve. The term melting point denotes the temperature of the solid-liquid transition.

Molecules are shown by their SMILES.

In the first data set the test system is HCT116 p53+/+ colon cancer cells. In words: Proliferation assay (MTS, 96 h). The note with it: Homo sapiens, HCT-116; 96 h incubation, MTS; mean ±SD (3 experiments). It counts as cell-based, human. As to the method: (§1) The human cancer cell types (neuroepithelioma (SK-N-MC), colon cancer (HCT116 with wild-type p53 (p53^+/+)), Burkitt's lymphoma (Raji) and cervical carcinoma (HeLa)) cells and normal human dermal fibroblasts (NHDF) were obtained from the American Type Culture Collection (ATCC, Manassas, VA, USA). HCT116 null p53 (p53^−/−) cells were obtained from the Maria Sklodowska-Curie Memorial Cancer Center and Institute of Oncology, Poland.
(§2) The SK-N-MC cells were cultured in minimum essential medium (MEM; Life Technologies, Grand Island, New York, USA) containing 10% (v/v) fetal bovine serum (FBS; Life Technologies), 1 mM sodium pyruvate (Life Technologies), 1% (v/v) non-essential amino acids (Life Technologies), 2 mM L-glutamine (Life Technologies), 100 U/mL penicillin (Life Technologies), 100 µg/mL streptomycin (Life Technologies) and 0.28 µg/mL fungizone (Bristol Myers Squibb Pharmaceuticals, Montreal, Canada). The HCT116 and NHDF cells were grown in Dulbecco's modified Eagle's medium (DMEM; Sigma-Aldrich) supplemented with 12% (v/v) heat-inactivated FBS (HCT116; Life Technologies) or 15% (v/v) FBS (NHDF; Life Technologies), 100 µg/mL of gentamicin (Polfa Warszawa S.A., Warsaw, Poland), 100 µg/mL of streptomycin (Polfa) and 100 U/mL of penicillin (Polfa). The Raji and HeLa cells were cultured in Roswell Park Memorial Institute medium (RPMI-1640; Sigma-Aldrich) with the addition of 10% (v/v) heat-inactivated FBS (Life Technologies) and the supplements described for SK-N-MC cells above. All cell lines were cultured under standard conditions at 37°C in a humidified atmosphere at 5% CO2 and were subcultured every 3–4 days as required.
(§3) The cells were seeded in 96-well plates (SK-N-MC: 1.5×10^4 cells/well; HeLa: 5.0×10^3 cells/well; Raji: 3.0×10^3 cells/well; HCT116: 3.5×10^3 cells/well; NHDF: 3.0×10^3 cells/well) 24 h prior to the addition of the novel compounds. The assays were performed using a 72 h (SK-N-MC, Raji, HeLa) or 96 h (HCT 116, NHDF) incubation period with the agents at 37°C. […] Additionally, DFO and Dp44mT were included as positive controls in all experiments as their activity is well characterized, [42], [50].
(§4) Chelator stock solutions were prepared in DMSO and diluted in media so that the final [DMSO] <0.05%. The results were expressed as a percentage of the control and the resulting IC50 values were calculated using GraphPad Prism 5 (GraphPad Software, Inc., La Jolla, CA, USA). The IC50 was defined as the concentration necessary to reduce the absorbance to 50% of the untreated control. Each individual compound was tested in triplicate in a single experiment, with each experiment being repeated three times. After incubation of HCT 116 and NHDF cells with the tested compounds, 20 µL of the CellTiter 96 Aqueous One Solution - MTS (Promega, Madison, WI, USA) solution was added to each well (with 100 µL of DMEM without phenol red) and incubated for 1 h/37°C. The optical density of the samples was analyzed at 490 nm.
`Oc1ccc2cccnc2c1/C=N/NC(=S)N1CCOCC1` [4c] yielded an IC50 of 20.1 ± 0.3 µM.
On to `Oc1ccccc1/C=N/NC(=S)N1CCN(c2ccccc2)CC1` [6b], for which the half-inhibitory concentration (IC50) came to 6.9 ± 2.3 µM. Against the preceding compound, the IC50 is about 2.9-fold lower.
Compound `CCN1CCN(C(=S)N/N=C/c2c(O)ccc3cccnc23)CC1` [4a] registered an IC50 of 20.2 ± 0.3 µM.

In a further data set the test system is HCT116 p53−/− colon cancer cells. Briefly: Proliferation assay (MTS, 96 h). The note with it: Homo sapiens, HCT-116, 96 h, 96 h incubation, MTS; mean ±SD (3 experiments). It counts as cell-based, human. Here is the method: as §1, §2, §3, §4
Compound `Oc1ccc2cccnc2c1/C=N/NC(=S)N1CCOCC1` [4c] returned an IC50 of 19.8 ± 4.9 µM.
In turn, `Oc1ccccc1/C=N/NC(=S)N1CCN(c2ccccc2)CC1` [6b] displayed an IC50 of 8.86 ± 1.46 µM.
The same measure, in the same setting: as for `CCN1CCN(C(=S)N/N=C/c2c(O)ccc3cccnc23)CC1` [4a], the figure is 20.3 ± 0.9 µM.

For a further data set, the system named is HeLa cervical carcinoma cells. Briefly: Proliferation assay (crystal violet, 72 h). The class given is cell-based. As to conditions: Homo sapiens, 72 h incubation, mean ±SD (3 experiments). Here is the method: as §1, §2, §3, §4
(§5) MTT (3-[4,5-dimethylthiazol-2-yl]-2,5-diphenyltetrazolium bromide) was used to evaluate the anti-proliferative effects of the chelators in SK-N-MC and Raji cells. Following incubation with the investigated compounds, 10 µL of MTT (5 mg/mL in PBS; Sigma-Aldrich) was added to each well. After a 2 h (SK-N-MC) or 4 h (Raji) incubation, the plates were centrifuged, and the cells were lysed with 100 µL of 10% SDS-50% isobutanol in 0.01 M HCl (SK-N-MC) or DMSO (Raji). The absorbance was measured at 570 nm. The anti-proliferative effects of these novel agents on HeLa cells were estimated using crystal violet staining (0.5% crystal violet solution for 10 min). Finally, the wells were rinsed with water and the cells were lysed with 2% SDS. The optical density of the samples was analyzed at 595 nm.
As for `Oc1ccc2cccnc2c1/C=N/NC(=S)N1CCOCC1` [4c], half-maximal inhibition (IC50) was put at 10.2 ± 1.2 µM.
The compound `Oc1ccccc1/C=N/NC(=S)N1CCN(c2ccccc2)CC1` [6b] gave an IC50 of 5.8 ± 0.48 µM.
As for `CCN1CCN(C(=S)N/N=C/c2c(O)ccc3cccnc23)CC1` [4a], the IC50 was found to be 11.3 ± 1.6 µM.

The subject of the next data set is normal human dermal fibroblast (NHDF) cells. In words: Proliferation assay (MTS, 96 h), normal mortal cells. The class given is cell-based. As to conditions: Homo sapiens, NHDF, 96 h, 96 h incubation, mean ±SD (3 experiments). Here is the method: as §1, §2, §3, §4
Turning to `Oc1ccc2cccnc2c1/C=N/NC(=S)N1CCOCC1` [4c], the IC50 is > 25 µM.
`Oc1ccccc1/C=N/NC(=S)N1CCN(c2ccccc2)CC1` [6b] had an IC50 of 13.5 ± 4.8 µM.
Regarding `CCN1CCN(C(=S)N/N=C/c2c(O)ccc3cccnc23)CC1` [4a], the IC50 stood at 12.1 ± 4.2 µM.

Tested on in another data set: not given
Test: not given
Further details: method as in PMID 17851637, PMID 18217206, PMID 15148626. As to conditions: clinical trials; cited from earlier work.
Turning to `NC(=S)NN=Cc1ncccc1N` [Triapine, 3-aminopyridine-2-carboxaldehyde thiosemicarbazone], the “Side effects upon administration” value was “methemoglobin formation and hypoxia”.

The subject of the next data set is Raji Burkitt's lymphoma cells. In words: Proliferation assay (MTT, 72 h). The class given is cell-based. As to conditions: Homo sapiens, 72 h incubation, mean ±SD (3 experiments). As to the method:
as §1, §2, §3, §4, §5
`Oc1ccc2cccnc2c1/C=N/NC(=S)N1CCOCC1` [4c]: the IC50 stood at 3.53 ± 1.87 µM.
`Oc1ccccc1/C=N/NC(=S)N1CCN(c2ccccc2)CC1` [6b] yielded an IC50 of 1.96 ± 0.85 µM.
`CCN1CCN(C(=S)N/N=C/c2c(O)ccc3cccnc23)CC1` [4a]: the IC50 was 3.35 ± 1.11 µM.

Another data set relates to SK-N-MC neuroepithelioma cells. In words: Proliferation assay (MTT, 72 h). It counts as cell-based. As to conditions: Homo sapiens, 72 h incubation, mean ±SD (3 experiments). As to the method:
as §1, §2, §3, §4, §5
In the case of `Oc1ccc2cccnc2c1/C=N/NC(=S)N1CCOCC1` [4c], the IC50 was found to be 4.97 ± 0.95 µM.
The compound `Oc1ccccc1/C=N/NC(=S)N1CCN(c2ccccc2)CC1` [6b] gave a 50% inhibitory concentration (IC50) of 5.13 ± 0.51 µM.
With `CCN1CCN(C(=S)N/N=C/c2c(O)ccc3cccnc23)CC1` [4a], the IC50 stood at 5.09 ± 0.47 µM.

A further data set has as its system SK-N-MC cells. Briefly: Mobilization of cellular 59Fe (59Fe efflux). The class given is cell-based, human. The note with it: chelator 25 µM, 3 h/37°C, prelabeled SK-N-MC cells; control medium 4±1%. As to the method:
The iron transport protein, Tf (Sigma-Aldrich), was labeled with ^59Fe (PerkinElmer Life and Analytical Sciences, Boston, MA) to form ^59Fe2-Tf using standard methods, [7]. Unbound ^59Fe was removed by passage through a Sephadex G25 column and was followed by exhaustive dialysis, [7].
To examine the ability of the novel chelators to mobilize ^59Fe from SK-N-MC cells, ^59Fe efflux experiments were performed using established techniques, [51]. The monolayer of SK-N-MC cells was prelabeled for 3 h at 37°C in MEM containing ^59Fe2-Tf (0.75 µM). Cells were then washed four times with ice-cold PBS and incubated for a further 3 h at 37°C with medium alone (the control) or medium containing the chelator (25 µM). After this incubation, the overlying medium that contained the released ^59Fe was separated from the cells using a Pasteur pipette. Radioactivity was measured in both the cells and supernatant using a γ-scintillation counter (Wallac Wizard 3, Turku, Finland). In these studies, the novel ligands were compared to the previously characterized chelators, DFO and Dp44mT, as their ability to mobilize cellular ^59Fe has been extensively examined in these cells, [12], [17], [18], [50].
Figure 6 Effect of (A) series 1, (B) series 2, (C) series 3, (D) series 4, (E) series 5 and (F) series 6 chelators, relative to the controls DFO and Dp44mT, on ^59Fe mobilization from prelabeled SK-N-MC cells. Cells were incubated for 3 h/37°C with ^59Fe-transferrin (0.75 µM), washed 4 times with ice-cold PBS and then reincubated for 3 h/37°C in the presence or absence of the chelators (25 µM). Release of ^59Fe was then assessed using a γ-scintillation counter. Results are mean ±SD (3 experiments).
In the case of `Oc1ccc2cccnc2c1/C=N/NC(=S)N1CCOCC1` [4c], the “59Fe mobilization (% of cellular 59Fe released)” value is reported as 31–39%.
Consider `CCN1CCN(C(=S)N/N=C/c2c(O)ccc3cccnc23)CC1` [4a], for which the “59Fe mobilization (% of cellular 59Fe released)” value was 31–39%.

Tested on in the next data set: not given
Test: not given
Conditions: not given
The compound `Oc1ccccc1/C=N/NC(=S)N1CCN(c2ccccc2)CC1` [6b] had a melting point of 206 to 207 °C.
